Measurements as given in patent publication US9617244B2, “Antibacterial quinoline derivatives” (JANSSEN PHARMACEUTICA NV, priority 2012, dated 2017).
Values after ≈ are worked out from the molar mass of the structure shown.

How the values were obtained:
[1] = tested on: Staphylococcus aureus (ATCC29213); assay: In-vitro anti-bacterial activity, microtitre plate assay, IC90 determination (non-mycobacterial strains); assay type: cell-based; details: 90% inhibitory concentration for bacterial growth, resazurin fluorescence; for IC90 STA B29213: 24 hours; for IC90: Staphylococcus aureus, ATCC29213, 24 h, read-out: IC90 STA B29213
Protocol: D.2. In-Vitro Method for Testing Compounds for Anti-Bacterial Activity Against Various Non-Mycobacterial Strains
Preparation of Bacterial Suspensions for Susceptibility Testing:
The bacteria used in this study were grown overnight in flasks containing 100 ml Mueller-Hinton Broth (Becton Dickinson—cat. no. 275730) in sterile de-ionized water, with shaking, at 37° C. Stocks (0.5 ml/tube) were stored at −70° C. until use. Bacteria titrations were performed in microtiter plates to detect the TCID50, in which TCID50 represents the dilution that gives rise to bacterial growth in 50% of inoculated cultures. In general, an inoculum level of approximately 100 TCID50 was used for susceptibility testing.
Anti Bacterial Susceptibility Testing: IC90 Determination
Flat-bottom, sterile 96-well plastic microtiter plates were filled with 180 μl of sterile deionized water, supplemented with 0.25% BSA. Subsequently, stock solutions (7.8× final test concentration) of compounds were added in 45 μl volumes in column 2 Serial five-fold dilutions (45 μl in 180 μl) were made directly in the microtiter plates from column 2 to reach column 11. Untreated control samples with (column 1) and without (column 12) inoculum were included in each microtiter plate. Depending on the bacteria type, approximately 10 to 60 CFU per well of bacteria inoculum (100 TCID50), in a volume of 100 μl in 2.8× Mueller-Hinton broth medium, was added to the rows A to H, except column 12. The same volume of broth medium without inoculum was added to column 12 in row A to H. The cultures were incubated at 37° C. for 24 hours under a normal atmosphere (incubator with open air valve and continuous ventilation). At the end of incubation, one day after inoculation, the bacterial growth was quantitated fluorometrically. Therefore resazurin (0.6 mg/ml) was added in a volume of 20 μl to all wells 3 hours after inoculation, and the plates were re-incubated overnight. A change in colour from blue to pink indicated the growth of bacteria. The fluorescence was read in a computer-controlled fluorometer (Cytofluor Biosearch) at an excitation wavelength of 530 nm and an emission wavelength of 590 nm. The % growth inhibition achieved by the compounds was calculated according to standard methods. The IC90 (expressed in μg/ml) was defined as the 90% inhibitory concentration for bacterial growth.

[2] = tested on: Mycobacterium smegmatis (ATCC607); assay: In-vitro anti-bacterial activity against strain M. Smegmatis ATCC607; assay type: cell-based; details: 90% inhibitory concentration for bacterial growth, Alamar Blue fluorescence; for IC90 MSM 607: 48 hours; for IC90: Mycolicibacterium smegmatis, ATCC607, 48 h, read-out: IC90 MSM 607
Protocol: D.1. In-Vitro Method for Testing Compounds for Anti-Bacterial Activity Against Strain M. Smegmatis ATCC607
Flat-bottom, sterile 96-well plastic microtiter plates were filled with 180 μl of sterile deionized water, supplemented with 0.25% BSA. Subsequently, stock solutions (7.8× final test concentration) of compounds were added in 45 μl volumes to a series of duplicate wells in column 2 so as to allow evaluation of their effects on bacterial growth. Serial five-fold dilutions (45 μl in 180 μl) were made directly in the microtiter plates from column 2 to 11 using a customised robot system (Zymark Corp., Hopkinton, Mass.). Pipette tips were changed after every 3 dilutions to minimize pipetting errors with high hydrophobic compounds. Untreated control samples with (column 1) and without (column 12) inoculum were included in each microtiter plate. Approximately 250 CFU per well of bacteria inoculum, in a volume of 100 μl in 2.8× Mueller-Hinton broth medium, was added to the rows A to H, except column 12. The same volume of broth medium without inoculum was added to column 12 in row A to H. The cultures were incubated at 37° C. for 48 hours in a humidified 5% CO2 atmosphere (incubator with open air valve and continuous ventilation). At the end of incubation, two days after inoculation, the bacterial growth was quantitated fluorometrically. Therefore Alamar Blue (10×) was added to all wells in a volume of 20 μl and plates were incubated for another 2 hours at […]
The fluorescence was read in a computer-controlled fluorometer (Cytofluor, Biosearch) at an excitation wavelength of 530 nm and an emission wavelength of 590 nm (gain 30). The percentage growth inhibition achieved by the compounds was calculated according to standard methods and expressed as IC90 (μg/ml) which defines the 90% inhibitory concentration for bacterial growth.

IC90 STA B29213 [1] [µg/mL]	IC90 MSM 607 [2] [µg/mL]	IC90 [1] [µg/mL]	IC90 [2] [µg/mL]	Compound
		14.9 (≈ 29.4 µM)	7.47 (≈ 14.7 µM)	COc1nc2ccc(Br)cc2cc1C(n1cccn1)[C@@]1(O)CCN[C@H](Cc2ccccc2)C1 (stereo in doubt) [Compound 67]
>15.22	>15.22			CS(=O)(=O)c1ccc2[nH]c(=O)c(C(c3ccc(Cl)cc3)C3(O)CCN[C@@H](Cc4ccc(F)c(F)c4)C3)cc2c1 (stereo in doubt) [Compound 205]
>15.08	>15.08			CS(=O)(=O)c1ccc2[nH]c(=O)c(C(c3ccc(Cl)cc3)C3(O)CCN[C@@H](Cc4ccc(F)c(F)c4)C3)cc2c1 (stereo in doubt) [Compound 206]
3.83 (≈ 6.68 µM)	3.83 (≈ 6.68 µM)			CS(=O)(=O)c1ccc2[nH]c(=O)c(C(c3ccc(Cl)cc3)C3(O)CCN[C@@H](Cc4ccc(F)c(F)c4)C3)cc2c1 (stereo in doubt) [Compound 207]
7.60 (≈ 13.3 µM)	9.57 (≈ 16.7 µM)			CS(=O)(=O)c1ccc2[nH]c(=O)c(C(c3ccc(Cl)cc3)C3(O)CCN[C@@H](Cc4ccc(F)c(F)c4)C3)cc2c1 (stereo in doubt) [Compound 208]
6.19 (≈ 12.6 µM)	3.90 (≈ 7.94 µM)			COc1nc2ccc(F)cc2cc1C(c1ccc(Cl)cc1)C1(O)CCNC(Cc2ccccc2)C1 (stereo not shown) [Compound 55]
3.50 (≈ 6.31 µM)	3.50 (≈ 6.31 µM)			CS(=O)(=O)c1ccc2[nH]c(=O)c(C(c3ccc(Cl)cc3)C3(O)CCNC(Cc4ccc(F)cc4)C3)cc2c1 (stereo not shown) [Compound 57]
>13.94	>13.94			CS(=O)(=O)c1ccc2[nH]c(=O)c(C(c3ccc(Cl)cc3)C3(O)CCNC(Cc4ccc(F)cc4)C3)cc2c1 (stereo not shown) [Compound 58]
6.99 (≈ 12.6 µM)	5.55 (≈ 10 µM)			CS(=O)(=O)c1ccc2[nH]c(=O)c(C(c3ccc(Cl)cc3)C3(O)CCNC(Cc4ccc(F)cc4)C3)cc2c1 (stereo not shown) [Compound 59]
7.93 (≈ 15.8 µM)	3.98 (≈ 7.92 µM)			CCCN(C)CC1CC(O)(C(c2ccc(Cl)cc2)c2cc3cc(Cl)ccc3nc2OC)CCN1 (stereo not shown) [Compound 64]
		4.11 (≈ 7.94 µM)		COc1nc2ccc(Br)cc2cc1C(c1ccccc1)C1(O)CCNC(Cc2ccccc2)C1 (stereo not shown) [Compound 72]
5.49 (≈ 9.95 µM)	4.36 (≈ 7.9 µM)			COc1nc2ccc(Br)cc2cc1C(c1ccc(Cl)cc1)C1(O)CCNC(Cc2ccccc2)C1 (stereo not shown) [Compound 77]
		4.37 (≈ 7.94 µM)		COc1nc2ccc(-c3cccnc3)cc2cc1C(c1ccc(Cl)cc1)C1(O)CCNC(Cc2ccccc2)C1 (stereo not shown) [Compound 80]
	9.21 (≈ 19.9 µM)			CC1CC(O)(C(c2ccc(Cl)cc2)c2cc3cc(Br)ccc3[nH]c2=O)CCN1 (stereo not shown) [Compound 132]
13.44 (≈ 25.1 µM)				COc1nc2ccc(F)cc2cc1C(c1ccc(Cl)cc1)C1(O)CCN(C(C)c2ccccc2)C(CO)C1 (stereo not shown) [Compound 437]
8.61 (≈ 15.8 µM)				COc1nc2ccc(Cl)cc2cc1C(c1ccc(Cl)cc1)C1(O)CCNC(c2ccc3ccccc3c2)C1 (stereo not shown) [Compound 440]
12.17 (≈ 22.4 µM)				COc1nc2ccc(Cl)cc2cc1C(c1ccc(Cl)cc1)C1(O)CCNC(c2ccc3ccccc3c2)C1 (stereo not shown) [Compound 441]

Second part, the molecule before the results:

Compound	IC90 STA B29213 [1] [µg/mL]	IC90 MSM 607 [2] [µg/mL]	IC90 [1] [µg/mL]	IC90 [2] [µg/mL]
COc1nc2ccc(Cl)cc2cc1C(c1ccc(Cl)cc1)C1(O)CCNC(c2ccc(F)cc2C)C1 (single isomer, unassigned) [Compound 1]	3.32 (≈ 6.32 µM)	1.66 (≈ 3.16 µM)		
COc1nc2ccc(Cl)cc2cc1C(c1ccc(Cl)cc1)C1(O)CCNC(c2ccc(F)cc2C)C1 (single isomer, unassigned) [Compound 4]	2.63 (≈ 5.01 µM)	2.09 (≈ 3.98 µM)		
O=c1[nH]c2ccc(Cl)cc2cc1C(c1ccc(Cl)cc1)C1(O)CCNC(Cc2ccccc2)C1 (stereo not shown) [Compound 5]	1.67 (≈ 3.38 µM)	1.67 (≈ 3.38 µM)		
O=c1[nH]c2ccc(Br)cc2cc1C(c1ccc(Cl)cc1)C1(O)CCNC(CC2CCCCC2)C1 (stereo not shown) [Compound 6]	1.83 (≈ 3.36 µM)	9.18 (≈ 16.9 µM)		
Cc1cc(F)ccc1C1CC(O)(C(c2ccc(Cl)cc2)c2cc3cc(Br)ccc3[nH]c2=O)CCN1 (stereo not shown) [Compound 7]	1.49 (≈ 2.68 µM)	0.94 (≈ 1.69 µM)		
COc1nc2ccccc2cc1C(c1ccc(Cl)cc1)C1(O)CCNC(CO)C1 (stereo not shown) [Compound 10]			> 10.4	> 10.4
COc1nc2ccc(F)cc2cc1C(c1ccc(Cl)cc1)C1(O)CCN(C(C)c2ccccc2)C(CO)C1 (stereo not shown) [Compound 14]	6.74 (≈ 12.6 µM)	3.79 (≈ 7.08 µM)		
COc1nc2ccccc2cc1C(c1ccccc1)C1(O)CCNC(c2ccc(F)cc2C)C1 (stereo not shown) [Compound 16]			7.21 (≈ 15.8 µM)	9.08 (≈ 19.9 µM)
COc1nc2ccc(Br)cc2cc1C(c1ccc(Cl)cc1)C1(O)CCN(C)C(Cc2ccccc2)C1 (stereo not shown) [Compound 18]			20 (≈ 35.3 µM)	10 (≈ 17.7 µM)
COc1nc2ccccc2cc1C(c1ccc(Cl)cc1)C1(O)CCNC(Cc2ccccc2)C1 (stereo not shown) [Compound 19]			5.95 (≈ 12.6 µM)	3.76 (≈ 7.95 µM)
COc1nc2ccc(Cl)cc2cc1C(c1ccc(Cl)cc1)C1(O)CCN(C(C)c2ccccc2)C(c2cccnc2)C1 (stereo not shown) [Compound 22]			> 15	> 15
COc1nc2ccc(Br)cc2cc1C(c1ccc(Cl)cc1)C1(O)CCN(Cc2ccccc2)CC1C (stereo not shown) [Compound 25]	>19.87			> 19.9
COc1nc2ccc(Br)cc2cc1C(c1ccc(Cl)cc1)C1(O)CCN(Cc2ccccc2)CC1C (stereo not shown) [Compound 26]	>44.79			
COc1nc2ccccc2cc1C(c1ccc(Cl)cc1)C1(O)CCNC(c2cccnc2)C1 (stereo not shown) [Compound 27]			11.6 (≈ 25.1 µM)	7.29 (≈ 15.8 µM)
COc1nc2ccc(Cl)cc2cc1C(c1ccc(Cl)cc1)C1(O)CCNC(c2cccnc2)C1 (stereo not shown) [Compound 28]	6.22 (≈ 12.6 µM)	3.12 (≈ 6.31 µM)		
COc1nc2ccc(Br)cc2cc1C(c1ccc(Cl)cc1)C1(O)CCNC(Cc2ccccc2)C1 (stereo not shown) [Compound 32]	3.48 (≈ 6.31 µM)	1.56 (≈ 2.83 µM)		
Cc1cc(F)ccc1C1CC(O)(C(c2cccc(Cl)c2)c2cc3cc(S(C)(=O)=O)ccc3[nH]c2=O)CCN1 (stereo not shown) [Compound 42]	7.34 (≈ 13.2 µM)	2.60 (≈ 4.68 µM)		
Cc1cc(F)ccc1C1CC(O)(C(c2ccccc2)c2cc3cc(Br)ccc3[nH]c2=O)CCN1 (stereo not shown) [Compound 43]	3.48 (≈ 6.67 µM)	3.48 (≈ 6.67 µM)		
COc1nc2ccc(Br)cc2cc1C(c1ccc(Cl)cc1)C1(O)CCNCC1Cc1cccc(F)c1 (stereo not shown) [Compound 48]	0.90 (≈ 1.58 µM)	0.72 (≈ 1.26 µM)		
O=c1[nH]c2ccc(Br)cc2cc1C(c1ccc(Cl)cc1)C1(O)CCNCC1Cc1cccc(F)c1 (stereo not shown) [Compound 49]		1.79 (≈ 3.22 µM)	2.25 (≈ 4.05 µM)	
COc1nc2ccc(SC)cc2cc1C(c1cccc(Cl)c1)C1(O)CCNC(Cc2ccc(F)cc2F)C1 (stereo not shown) [Compound 50]			1.15 (≈ 2.07 µM)	1.15 (≈ 2.07 µM)
COc1nc2ccc(Br)cc2cc1C(c1ccc(Cl)cc1)C1(O)CCNC(Cc2ccc(F)cc2F)C1 (stereo not shown) [Compound 51]	2.34 (≈ 3.98 µM)	1.17 (≈ 1.99 µM)		
COc1nc2ccc(F)cc2cc1C(c1ccc(Cl)cc1)C1(O)CCNC(Cc2ccccc2)C1 (stereo not shown) [Compound 54]	3.54 (≈ 7.21 µM)	1.77 (≈ 3.6 µM)		
